Consider one molecule from ChEMBL document CHEMBL5365427, “Discovery and Structural Optimization of Covalent ZAP-70 Kinase Inhibitors against Psoriasis” (J Med Chem, 2023).

Calls of active or inactive are those of the source. The calls are words filed in the database; no cut-off is given here.

The target in assay [1] is Tyrosine-protein kinase SYK (Homo sapiens, UniProt P43405). Briefly: Inhibition of SYK (unknown origin) using ULight-TK peptide as substrate incubated for 120 mins in presence of ATP by Lance Ultra Kinase assay.
For another assay, the system named is Mus musculus. Put plainly: Anti-inflammatory activity in imiquimod-induced BALB/c mouse psoriasis model assessed as reduction in immune cell infiltration at TOP administration, 2 % applied for 7 days by hematoxylin and eosin staining based assay. In kind it is functional, organism-based. Conditions: time 7.0 day.
Assay [2] deals with Mitogen-activated protein kinase 8 (Homo sapiens) (UniProt P45983). Briefly: Inhibition of JNK1 (unknown origin) at 1 uM relative to control.
Mitogen-activated protein kinase 8 (Homo sapiens), sequence (P45983 whole entry): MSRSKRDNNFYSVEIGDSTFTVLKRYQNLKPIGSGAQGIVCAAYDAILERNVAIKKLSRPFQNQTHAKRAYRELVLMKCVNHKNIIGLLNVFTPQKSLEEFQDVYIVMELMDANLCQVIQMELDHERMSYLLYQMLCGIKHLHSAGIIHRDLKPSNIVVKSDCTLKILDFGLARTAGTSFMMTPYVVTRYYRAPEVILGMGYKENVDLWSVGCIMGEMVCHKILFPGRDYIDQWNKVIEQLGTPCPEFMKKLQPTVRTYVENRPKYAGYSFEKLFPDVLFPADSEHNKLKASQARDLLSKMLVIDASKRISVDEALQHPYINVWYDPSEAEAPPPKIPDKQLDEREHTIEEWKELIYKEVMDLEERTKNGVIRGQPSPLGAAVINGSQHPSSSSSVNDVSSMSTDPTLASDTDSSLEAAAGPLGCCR
Assay [3] addresses T1, Tyrosine-protein kinase ZAP-70 (Homo sapiens, UniProt P43403).
T1 sequence (P43403 whole entry): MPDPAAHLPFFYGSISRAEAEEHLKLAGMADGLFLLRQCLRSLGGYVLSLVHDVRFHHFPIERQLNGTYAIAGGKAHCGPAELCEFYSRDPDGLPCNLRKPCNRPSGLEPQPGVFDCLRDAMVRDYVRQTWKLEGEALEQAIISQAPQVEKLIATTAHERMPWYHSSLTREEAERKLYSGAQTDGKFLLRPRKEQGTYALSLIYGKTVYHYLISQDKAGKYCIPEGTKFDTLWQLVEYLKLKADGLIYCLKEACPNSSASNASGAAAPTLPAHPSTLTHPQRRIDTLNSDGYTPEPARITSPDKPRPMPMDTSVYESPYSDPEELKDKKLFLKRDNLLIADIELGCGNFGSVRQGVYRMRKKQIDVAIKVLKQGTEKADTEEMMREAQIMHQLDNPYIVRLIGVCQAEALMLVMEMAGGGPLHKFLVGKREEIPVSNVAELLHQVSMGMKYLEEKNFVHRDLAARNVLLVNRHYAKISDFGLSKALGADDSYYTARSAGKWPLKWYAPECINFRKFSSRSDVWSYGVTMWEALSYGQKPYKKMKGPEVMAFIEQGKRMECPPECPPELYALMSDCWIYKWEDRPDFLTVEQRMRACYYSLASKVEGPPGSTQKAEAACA
Put plainly: Inhibition of ZAP-70 (unknown origin) using ULight-TK peptide as substrate incubated for 120 mins in presence of ATP by Lance Ultra Kinase assay.

The test system of assay [4] is Splenocyte. Put plainly: Immunosuppressive activity in BALB/c mouse Splenocyte assessed as inhibition of concanavalin A induced T-cell proliferation incubated for 48 hrs by [3H]-thymidine incorporation based beta scintillation counter analysis. In kind it is functional.
For assay [5], the target named is T2, Bone morphogenetic protein receptor type-2 (Homo sapiens) (UniProt Q13873).
T2 sequence (whole entry): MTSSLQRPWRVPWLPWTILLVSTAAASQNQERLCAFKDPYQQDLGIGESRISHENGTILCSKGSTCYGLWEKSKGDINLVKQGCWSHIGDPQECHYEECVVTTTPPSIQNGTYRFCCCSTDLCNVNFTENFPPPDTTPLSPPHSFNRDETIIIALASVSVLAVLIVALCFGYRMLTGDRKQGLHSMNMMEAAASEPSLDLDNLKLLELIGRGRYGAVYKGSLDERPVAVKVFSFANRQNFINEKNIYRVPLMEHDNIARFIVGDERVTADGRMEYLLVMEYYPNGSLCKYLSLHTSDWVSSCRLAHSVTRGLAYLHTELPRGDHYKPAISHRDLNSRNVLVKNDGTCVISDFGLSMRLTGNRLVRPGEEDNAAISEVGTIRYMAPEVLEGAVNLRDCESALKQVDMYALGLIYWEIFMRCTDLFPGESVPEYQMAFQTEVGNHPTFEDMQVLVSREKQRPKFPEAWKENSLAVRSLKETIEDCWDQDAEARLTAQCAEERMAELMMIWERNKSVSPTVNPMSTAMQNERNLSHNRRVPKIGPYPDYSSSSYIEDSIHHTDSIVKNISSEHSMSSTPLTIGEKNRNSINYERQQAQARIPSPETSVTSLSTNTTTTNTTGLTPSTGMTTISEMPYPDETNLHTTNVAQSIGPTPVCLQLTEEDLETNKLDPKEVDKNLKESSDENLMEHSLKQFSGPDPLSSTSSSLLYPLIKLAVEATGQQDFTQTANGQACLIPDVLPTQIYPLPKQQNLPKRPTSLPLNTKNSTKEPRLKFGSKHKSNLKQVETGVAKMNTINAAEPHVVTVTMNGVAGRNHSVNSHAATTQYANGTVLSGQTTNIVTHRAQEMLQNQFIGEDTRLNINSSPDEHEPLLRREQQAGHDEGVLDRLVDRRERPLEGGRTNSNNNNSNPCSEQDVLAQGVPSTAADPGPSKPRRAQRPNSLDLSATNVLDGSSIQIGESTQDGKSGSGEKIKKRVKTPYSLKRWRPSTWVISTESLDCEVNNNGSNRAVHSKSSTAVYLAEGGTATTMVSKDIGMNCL
Briefly: Inhibition of BMPR2 (unknown origin) at 1 uM relative to control.

Assay [6] has as its system Splenocyte. Put plainly: Immunosuppressive activity in anti-CD3/CD28 stimulated BALB/c mouse Splenocyte assessed as reduction in IL-17A cytokine level incubated for 48 hrs by ELISA assay. In kind it is functional, cell-based.
Another assay relates to Jurkat. Put plainly: Immunosuppressive activity in anti-CD3/CD28 stimulated human Jurkat cells assessed as reduction in LAT phosphorylation level at 100 to 400 nM incubated for 48 hrs by Western blotting analysis. In kind it is functional, cell-based. As to conditions: dose 100-400 nM.

For `C=CC(=O)Nc1cc(CNc2nc(Nc3ccc(N4CCOCC4)c(OC)c3)c(C(N)=O)c3nccn23)ccc1Cl`, the IC50 in assay [1] is 1160 nM; in assay [3] it was 14.6 nM; with Splenocyte [4] it was 64 nM. In addition, the outcome in the assay with Mus musculus and in the assay with Jurkat was Active. In addition, the inhibition in assay [2] and in assay [5] was over 90% in each case. Also, the Activity entry in the assay with Splenocyte [6] was “Dose-Dependent Effect”.
